# Laboratory results: paper PMC5830590 (British Journal of Cancer, 2018)
# Entries after “also recorded” stand apart in the source; their conditions may differ.
# Tests used:
# [1] = Plasma pharmacokinetics on cycle 1, day 1; assay type: in vivo, human
# [2] = Urinary excretion up to 25 h after start of copanlisib infusion; assay type: in vivo, human; settings: 25 h urine collection interval; expansion cohort
# [3] = tested on: patients with advanced malignancies; assay: Adverse events; assay type: in vivo, human
# [4] = tested on: patients with advanced malignancies; assay: Dose escalation; assay type: in vivo, human
# [5] = tested on: advanced or refractory solid tumours; assay: Tumour response by RECIST version 1.1; assay type: in vivo, human
# [6] = tested on: multidrug and toxin extrusion protein 2K (MATE2-K); settings: in vitro; no reference given; cited from earlier work
# PIK3CA-mutated cells = settings: preclinical studies; ref Liu et al, 2013; cited from earlier work
# [7] = tested on: class I PI3K (PI3K-δ and PI3K-α isoforms); settings: pan-class I PI3K inhibitor; ref Liu et al, 2013; Haike et al, 2014; cited from earlier work
# [8] = tested on: patients with chronic lymphocytic leukaemia, small lymphocytic lymphoma and indolent non-Hodgkin’s lymphomas; settings: ref US Food and Drug Administration, 2016; cited from earlier work
structure (smiles),measurement,setting,value
COc1c(OCCCN2CCOCC2=O)ccc2c3n(c(=NC(=O)c4cnc(N)nc4)nc12)CCN3 [M-1],"median tmax of M-1, range across cohorts","[1]; copanlisib 0.8 mg kg^−1, cycle 1, day 1",2 to 4 h
same,effect of co-administration of CisGem on plasma exposure (Cmax and AUC(0–25)),[1]; in vivo,no influence
same,estimated geometric mean terminal half-life of M-1 versus copanlisib,[1]; in vivo,comparable with that of copanlisib
same,"amount excreted into urine, % of dose",[2],~0.9%
COc1c(OCCCN2CCOCC2)ccc2c1N=C(NC(=O)c1cnc(N)nc1)N1CCN=C21 [copanlisib],TEAE any grade: decreased platelet count,[3]; all 50 patients,80%
same,TEAE any grade: fatigue,[3]; all 50 patients,76%
same,TEAE any grade: hyperglycaemia,[3]; all 50 patients,80%
same,TEAE any grade: nausea,[3]; all 50 patients,86%
same,copanlisib-related TEAE: anaemia,[3]; all 50 patients,42%
same,copanlisib-related TEAE: anorexia,[3]; all 50 patients,56%
same,copanlisib-related TEAE: decreased neutrophil count,[3]; all 50 patients,62%
same,copanlisib-related TEAE: decreased platelet count,[3]; all 50 patients,58%
same,copanlisib-related TEAE: fatigue,[3]; all 50 patients,66%
same,copanlisib-related TEAE: hyperglycaemia,[3]; all 50 patients,76%
same,copanlisib-related TEAE: hypertension,[3]; all 50 patients,46%
same,copanlisib-related TEAE: nausea,[3]; all 50 patients,74%
same,copanlisib-related TEAE: vomiting,[3]; all 50 patients,36%
same,deaths considered related to study treatment,[3]; all 50 patients,No deaths
same,grade ⩾3 TEAE: decreased neutrophil count,[3]; all 50 patients,62%
same,grade ⩾3 TEAE: decreased platelet count,[3]; all 50 patients,38%
same,grade ⩾3 TEAE: fatigue,[3]; all 50 patients,22%
same,grade ⩾3 TEAE: hyperglycaemia,[3]; all 50 patients,24%
same,grade ⩾3 TEAE: hypertension,[3]; all 50 patients,42%
same,grade ⩾3 copanlisib-related AE: decreased neutrophil count,[3]; all 50 patients,48%
same,grade ⩾3 copanlisib-related AE: decreased platelet count,[3]; all 50 patients,28%
same,grade ⩾3 copanlisib-related AE: hypertension,[3]; all 50 patients,38%
same,patients who received insulin as remedial drug therapy,[3]; all 50 patients,14 patients
same,dose modification because of copanlisib-related TEAEs,"[3]; all 50 patients, 26 patients",52%
same,serious AE,"[3]; all 50 patients, 26 patients",52%
same,"dose modifications (interruption or dose reduction) for copanlisib, gemcitabine or cisplatin due to TEAEs","[3]; all 50 patients, 45 patients",90%
same,at least one serious copanlisib-related AE,"[3]; all 50 patients, eleven patients",22%
same,serious AE: abdominal pain,"[3]; all 50 patients, four patients",8%
same,permanently discontinued copanlisib because of TEAEs,"[3]; all 50 patients, nine patients",18%
same,serious copanlisib-related AE: grade 4 sinus tachycardia and grade 4 sepsis,"[3]; all 50 patients, one patient",2%
same,serious AE: lung infection,"[3]; all 50 patients, six patients",12%
same,TEAE of grade 3 hyperglycaemia,"[3]; all 50 patients, ten patients",20%
same,serious AE: dehydration,"[3]; all 50 patients, three patients",6%
same,TEAE of grade 4 hyperglycaemia,"[3]; all 50 patients, two patients",4%
same,grade 4 serious TEAE: sepsis,"[3]; all 50 patients, two patients",4%
same,patients with infusion-related increases in plasma glucose and plasma insulin,[3]; all patients,~80%
same,signs of increased nephrotoxicity caused by intrarenal accumulation of cisplatin,"[3]; patients treated with copanlisib plus cisplatin, data not shown",no signs of increased nephrotoxicity
same,RP2D of copanlisib in combination with CisGem,"[4]; cisplatin 25 mg m^−2 + gemcitabine 1000 mg m^−2, days 1 and 8 of a 21-day cycle",0.8 mg/kg
same,RP2D of copanlisib in combination with gemcitabine,"[4]; gemcitabine 1000 mg m^−2, days 1, 8 and 15 of a 28-day cycle",0.8 mg/kg
same,dose dependence of plasma exposure (Cmax and AUC),[1]; dose range 0.6–0.8 mg kg^−1,nearly dose-proportional increase
same,half-life,"[1]; human, plasma, intravenous",25 to 26 h
same,effect of co-administration of CisGem on plasma exposure (Cmax and AUC(0–25)),[1]; in vivo,No substantial differences; also recorded: no influence
same,"amount excreted into urine, % of dose",[2],about 4.9%
same,response rate in patients with BTC who had not received prior anti-cancer therapy,[5]; 4 out of 11 patients,36%
same,response in patients with BTC who had received prior CisGem or gemcitabine-containing chemotherapy,[5]; 12 patients,No response
same,objective response rate overall,"[5]; all 50 patients, all cohorts",10%
same,"stable disease, patients","[5]; all 50 patients, 19 patients",38%
same,"partial response, patients","[5]; all 50 patients, four patients",8%
same,"complete response, patients","[5]; all 50 patients, one patient",2%
same,inhibition of MATE2-K,[6],strong inhibitor
same,anti-tumour activity in PIK3CA-mutated cells,PIK3CA-mutated cells,anti-tumour activity
same,PI3K isoform selectivity,[7],predominant activity against PI3K-δ and PI3K-α isoforms
"O=c1ccn([C@@H]2O[C@H](CO)[C@@H](O)C2(F)F)c(=O)[nH]1 [dFdU, 2’,2’-difluorodeoxyuridine]",influence of co-administration with copanlisib on PK,[1]; in vivo,not influenced
"Nc1ccn([C@@H]2O[C@H](CO)[C@@H](O)C2(F)F)c(=O)n1 [gemcitabine, reference compound]",influence of co-administration with copanlisib on PK,[1]; in vivo,not influenced
CC[C@H](Nc1ncnc2[nH]cnc12)c1nc2cccc(F)c2c(=O)n1-c1ccccc1 [idelalisib],rate of AEs in combination with other anti-cancer therapies,[8],"increased rate of AEs, including deaths"
